According to PMC8037569, “Neuroprotective Effect of Aurantio-Obtusin, a Putative Vasopressin V1A Receptor Antagonist, on Transient Forebrain Ischemia Mice Model” (International Journal of Molecular Sciences, 2021):
Read-outs that look alike come from different tables or passages of the source. Values belong to the compound of their own block, whether it stands above or below them.

How the values were obtained:
hV1AR = target: T1, hV1AR (Homo sapiens, UniProt P37288); assay: GPCR functional assay: intracellular Ca2+ mobilization in transfected CHO cells; format: cell-based; conditions: for % Stimulation (agonist effect) of control agonist response, V1A (h): control response to 1 μM AVP
T1 construct: host or cells: CHO

dopamine receptors = tested on: dopamine receptors; parameters: method as in PMID 32280914; conditions: at the tested concentrations; cited from earlier work
vasopressin receptors = tested on: vasopressin receptors; parameters: method as in PMID 32280914; conditions: at the tested concentrations; cited from earlier work
h5-HT1AR = target: T2, h5-HT1AR (Homo sapiens, UniProt P08908); assay: GPCR functional assay: intracellular Ca2+ mobilization in Ba/F3 cells; format: cell-based; conditions: for % Inhibition (antagonist effect) of control agonist response, 5-HT1A (h) / % Stimulation (agonist effect) of control agonist response, 5-HT1A (h): 100 µM test compound; for % Inhibition (antagonist effect) of control agonist response, 5-HT1A (h): control response to 30 nM serotonin; for % Stimulation (agonist effect) of control agonist response, 5-HT1A (h): control response to serotonin (2.5 μM); for inhibition at 100 µM: BaF3, read-out: % Inhibition (antagonist effect) of control agonist response, 5-HT1A (h)
T2 construct: host or cells: Ba/F3 (murine pro-B)
T2 sequence (P08908 1-422): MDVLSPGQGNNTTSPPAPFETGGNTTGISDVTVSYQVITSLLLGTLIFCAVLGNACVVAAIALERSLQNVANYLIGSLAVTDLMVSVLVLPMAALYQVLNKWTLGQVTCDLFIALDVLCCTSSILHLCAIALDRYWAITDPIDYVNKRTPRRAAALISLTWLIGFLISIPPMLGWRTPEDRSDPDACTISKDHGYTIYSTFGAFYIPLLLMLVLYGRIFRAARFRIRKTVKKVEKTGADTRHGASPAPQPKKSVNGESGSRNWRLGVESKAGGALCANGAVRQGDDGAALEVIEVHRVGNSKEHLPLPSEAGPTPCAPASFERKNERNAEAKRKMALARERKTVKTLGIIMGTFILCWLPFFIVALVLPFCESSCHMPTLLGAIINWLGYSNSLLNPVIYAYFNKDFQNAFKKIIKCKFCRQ

hNK1R = target: T3, hNK1R (Homo sapiens, UniProt P25103); assay: GPCR functional assay: intracellular Ca2+ mobilization in U373MG cells; format: cell-based; conditions: for % Inhibition (antagonist effect) of control agonist response, NK1 (h) / % Stimulation (agonist effect) of control agonist response, NK1 (h): 100 µM test compound; for % Inhibition (antagonist effect) of control agonist response, NK1 (h): control response to 1 nM [Sar9, Met(O2)11]-SP; for % Stimulation (agonist effect) of control agonist response, NK1 (h): control response to 30 nM [Sar9, Met(O2)11]-SP; for inhibition at 100 µM: U373 MG, read-out: % Inhibition (antagonist effect) of control agonist response, NK1 (h)
T3 construct: Human endogenous (U373MG cells); host or cells: U373MG

hD3 receptor = target: T4, hD3 receptor (Homo sapiens, UniProt P35462); assay: GPCR functional assay: cAMP modulation by HTRF in transfected CHO cells; format: cell-based; conditions: for % Stimulation (agonist effect) of control agonist response, D3 (h): 100 µM test compound, control response to 300 nM dopamine; for inhibition at 100 µM: CHO, read-out: % Inhibition (antagonist effect) of control agonist response, D3 (h)
T4 construct: host or cells: CHO

[1] = target: angiotensin-converting enzyme (ACE); parameters: method as in PMID 18803227; conditions: read-out: Inhibition of ACE activity, IC50; cited from earlier work
[2] = 100 µM test compound, control response to 10 nM AVP
[3] = CHO, read-out: % Inhibition (antagonist effect) of control agonist response, V1A (h)

T4 sequence (P35462 whole entry): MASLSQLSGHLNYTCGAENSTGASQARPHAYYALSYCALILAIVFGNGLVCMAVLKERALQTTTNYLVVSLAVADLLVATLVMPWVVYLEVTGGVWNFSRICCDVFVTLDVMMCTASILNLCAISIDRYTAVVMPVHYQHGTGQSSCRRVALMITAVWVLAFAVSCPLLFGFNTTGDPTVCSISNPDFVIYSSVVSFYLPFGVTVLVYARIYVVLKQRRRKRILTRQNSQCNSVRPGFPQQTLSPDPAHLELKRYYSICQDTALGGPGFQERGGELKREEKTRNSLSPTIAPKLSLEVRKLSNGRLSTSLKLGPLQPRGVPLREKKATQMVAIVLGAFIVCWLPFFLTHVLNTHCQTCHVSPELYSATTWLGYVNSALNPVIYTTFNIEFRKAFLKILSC
T1 sequence (P37288 whole entry): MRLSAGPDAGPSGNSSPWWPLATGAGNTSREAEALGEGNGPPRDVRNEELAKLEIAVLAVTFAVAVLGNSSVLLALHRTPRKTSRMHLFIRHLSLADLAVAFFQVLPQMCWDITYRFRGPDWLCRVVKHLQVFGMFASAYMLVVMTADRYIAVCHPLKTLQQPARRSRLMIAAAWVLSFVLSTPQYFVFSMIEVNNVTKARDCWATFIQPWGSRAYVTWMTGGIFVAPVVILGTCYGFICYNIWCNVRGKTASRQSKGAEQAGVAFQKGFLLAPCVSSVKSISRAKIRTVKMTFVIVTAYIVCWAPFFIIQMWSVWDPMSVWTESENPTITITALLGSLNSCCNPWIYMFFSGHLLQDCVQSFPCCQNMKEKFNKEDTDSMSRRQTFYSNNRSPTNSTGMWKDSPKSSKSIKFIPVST
T3 sequence (P25103 whole entry): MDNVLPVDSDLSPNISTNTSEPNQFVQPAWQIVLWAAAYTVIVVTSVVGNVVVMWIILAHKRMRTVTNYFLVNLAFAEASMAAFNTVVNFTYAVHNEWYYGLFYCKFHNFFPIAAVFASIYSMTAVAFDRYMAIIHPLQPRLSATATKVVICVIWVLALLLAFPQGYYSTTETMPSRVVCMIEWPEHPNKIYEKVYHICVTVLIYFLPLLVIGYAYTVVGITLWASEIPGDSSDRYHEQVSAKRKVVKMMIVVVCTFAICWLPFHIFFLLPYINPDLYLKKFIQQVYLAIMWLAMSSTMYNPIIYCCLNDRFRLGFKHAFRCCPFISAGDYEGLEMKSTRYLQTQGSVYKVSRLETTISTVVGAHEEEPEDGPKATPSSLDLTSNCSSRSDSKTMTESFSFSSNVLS

- inhibition at 12.5 µM (hV1AR; CHO, 12.5 µM, control response to 10 nM AVP, read-out: V1AR antagonist effect, % inhibition): 23.1%
- inhibition at 25 µM (hV1AR; CHO, 25 µM, control response to 10 nM AVP, read-out: V1AR antagonist effect, % inhibition): 26.5%
- inhibition at 50 µM (hV1AR; CHO, 50 µM, control response to 10 nM AVP, read-out: V1AR antagonist effect, % inhibition): 36.6%
- inhibition at 100 µM (hV1AR; CHO, 100 µM test compound, control response to 10 nM AVP, read-out: % Inhibition (antagonist effect) of control agonist response, V1A (h) (converted)): 42.3%
Structure (SMILES): COc1c(O)c(C)cc2c1C(=O)c1c(O)cc(O)cc1C2=O [2-Hydroxyemodin 1-methylether]

Structure (SMILES): Cc1cc2c(c(O)c1O)C(=O)c1c(O)cc(O)cc1C2=O [7-hydroxyemodin]
- Activity on dopamine receptors (dopamine receptors): showed activity
- Activity on vasopressin receptors (vasopressin receptors): showed activity

Structure (SMILES): Cc1cc(=O)c2c(O)c3c(OC4OC(CO)C(O)C(O)C4O)cc(O)cc3cc2o1 (stereo not drawn) [Cassiaside]
- % Inhibition (antagonist effect) of control agonist response, 5-HT1A (h) (h5-HT1AR): negligible
- % Stimulation (agonist effect) of control agonist response, 5-HT1A (h) (h5-HT1AR): 1.75 ± 0.07%
- inhibition at 100 µM (h5-HT1AR): -13.4%
- % Inhibition (antagonist effect) of control agonist response, NK1 (h) (hNK1R): negligible
- % Stimulation (agonist effect) of control agonist response, NK1 (h) (hNK1R): −1.70 ± 0.14%
- inhibition at 100 µM (hNK1R): 20.5%
- % Stimulation (agonist effect) of control agonist response, D3 (h) (hD3 receptor): 14.75 ± 1.20%
- inhibition at 100 µM (hD3 receptor): -5.05%
- % Inhibition (antagonist effect) of control agonist response, V1A (h) (hV1AR; [2]): negligible
- % Stimulation (agonist effect) of control agonist response, V1A (h) (hV1AR; 100 µM test compound): 1.40 ± 2.83%
- inhibition at 100 µM (hV1AR; [3]): -9.9%

- IC50 (hNK1R; standard antagonist, read-out: Antagonist effect IC50, NK1 (h)): 0.58 nM
Structure (SMILES): FC(F)(F)c1cc(CO[C@H]2CCCN[C@H]2c2ccccc2)cc(C(F)(F)F)c1 [L 733,060, reference compound]

Structure (SMILES): COc1cc(OC2OC(COC3OC(CO)C(O)C(O)C3O)C(O)C(O)C2O)c2c(O)c3c(=O)cc(C)oc3cc2c1 (stereo not drawn) [Rubrofusarin Gentiobioside, Rubrofusarin 6-O-β-gentiobioside]
- % Inhibition (antagonist effect) of control agonist response, 5-HT1A (h) (h5-HT1AR): negligible
- % Stimulation (agonist effect) of control agonist response, 5-HT1A (h) (h5-HT1AR): −0.30 ± 0.28%
- inhibition at 100 µM (h5-HT1AR): 4.25%
- % Inhibition (antagonist effect) of control agonist response, NK1 (h) (hNK1R): negligible
- % Stimulation (agonist effect) of control agonist response, NK1 (h) (hNK1R): −1.40 ± 0.42%
- inhibition at 100 µM (hNK1R): 3.9%
- % Stimulation (agonist effect) of control agonist response, D3 (h) (hD3 receptor): 7.05 ± 1.63%
- inhibition at 100 µM (hD3 receptor): -0.05%
- % Inhibition (antagonist effect) of control agonist response, V1A (h) (hV1AR; [2]): negligible
- % Stimulation (agonist effect) of control agonist response, V1A (h) (hV1AR; 100 µM test compound): −4.40 ± 1.41%
- inhibition at 100 µM (hV1AR; [3]): -13.6%

Structure (SMILES): O=C1c2cccc(O)c2C(=O)c2c(O)cc(CO)cc21 [aloe-emodin]
- Activity on dopamine receptors (dopamine receptors): remained inactive
- Activity on vasopressin receptors (vasopressin receptors): remained inactive

Structure (SMILES): Cc1cc(O)c2c(c1)C(=O)c1cc(O)cc(O)c1C2=O [emodin]
- Activity on dopamine receptors (dopamine receptors): showed activity
- Activity on vasopressin receptors (vasopressin receptors): showed activity

Structure (SMILES): COc1c(O[C@@H]2O[C@H](CO)[C@@H](O)[C@H](O)[C@H]2O)cc2c(c1O)C(=O)c1c(cc(C)c(O)c1OC)C2=O [gluco-aurantio-obtusin]
- IC50 [1]: 30.24 ± 0.2 µM

Structure (SMILES): COc1cc(O)cc2c1C(=O)c1c(O)cc(C)cc1C2=O [questin]
- Activity on dopamine receptors (dopamine receptors): remained inactive
- Activity on vasopressin receptors (vasopressin receptors): remained inactive
